Test results: ChEMBL document CHEMBL1201862, “PubChem BioAssay data set” (2004)
Where “and” joins values, the source holds several entries; their conditions need not be identical. Identical values can stand only once.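 A five-concentration, 48-hour dose response in 96-well plates underlies each endpoint, interpolated linearly between surrounding concentrations. GI50: concentration for 50% inhibition of growth.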 Calls of active or inactive are those of the source. Rule as the data show it: active = GI50 up to about 1.1 µM and inactive = higher.

How the values were obtained:
Experiment in all cases: NCI anticancer screen, dose series, 48 h
A549 = tested on: A549
CAKI-1 = tested on: CAKI-1
COLO 205 = tested on: COLO 205
HCC 2998 = tested on: HCC 2998
IGROV-1 = tested on: IGROV-1
LOX IMVI = tested on: LOX IMVI
MDA-MB-435 = tested on: MDA-MB-435
Malme-3M = tested on: Malme-3M
NCI-H460 = tested on: NCI-H460
OVCAR-4 = tested on: OVCAR-4
OVCAR-5 = tested on: OVCAR-5
OVCAR-8 = tested on: OVCAR-8
RPMI-8226 = tested on: RPMI-8226
SF-268 = tested on: SF-268
SK-MEL-2 = tested on: SK-MEL-2
SK-MEL-5 = tested on: SK-MEL-5
SNB-19 = tested on: SNB-19
U-251 = tested on: U-251
SR = tested on: SR
MCF7 = tested on: MCF7

Row | Compound | GI50 (A549) | GI50 (CAKI-1) | GI50 (COLO 205) | GI50 (HCC 2998) | GI50 (IGROV-1) | GI50 (LOX IMVI) | GI50 (MDA-MB-435) | GI50 (Malme-3M) | GI50 (NCI-H460) | GI50 (OVCAR-4) | GI50 (OVCAR-5) | GI50 (OVCAR-8) | GI50 (RPMI-8226) | GI50 (SF-268) | GI50 (SK-MEL-2) | GI50 (SK-MEL-5) | GI50 (SNB-19) | GI50 (U-251) | GI50 (SR) | GI50 (MCF7)
1 | CN(C)c1ccc(NN=C2SC(=N\c3ccccc3)/C(=N/c3ccccc3)S2)cc1 | 66.2 µM (inactive) | 76.4 µM (inactive) | 37.4 µM (inactive) | 26.6 µM (inactive) | > 100 µM (inactive) | 22.1 µM (inactive) | 20.4 µM (inactive) | 2.38 µM (inactive) | 13 µM (inactive) | 30.2 µM (inactive) | 70.5 µM (inactive) | 64.9 µM (inactive) | > 100 µM (inactive) | > 100 µM (inactive) | 13.6 µM (inactive) | 19.8 µM (inactive) | > 100 µM (inactive) | > 100 µM (inactive) | – | –
2 | O=C1c2c(c(-c3ccccc3)c(-c3ccccc3)c(-c3ccccc3)c2-c2ccccc2)C(=O)N1c1cccc(Br)c1 | > 100 µM (inactive) | > 100 µM (inactive) | > 100 µM (inactive) | > 100 µM (inactive) | > 100 µM (inactive) | > 100 µM (inactive) | – | > 100 µM (inactive) | > 100 µM (inactive) | > 100 µM (inactive) | > 100 µM (inactive) | > 100 µM (inactive) | > 100 µM (inactive) | > 100 µM (inactive) | > 100 µM (inactive) | > 100 µM (inactive) | > 100 µM (inactive) | > 100 µM (inactive) | > 100 µM (inactive) | –
3 | O=C1OC2C(O)C(=O)OC2C1O (centres undefined) | > 100 µM (inactive) | > 100 µM (inactive) | > 100 µM (inactive) | > 100 µM (inactive) | > 100 µM (inactive) | > 100 µM (inactive) | > 100 µM (inactive) | > 100 µM (inactive) | > 100 µM (inactive) | > 100 µM (inactive) | > 100 µM (inactive) | > 100 µM (inactive) | – | > 100 µM (inactive) | > 100 µM (inactive) | > 100 µM (inactive) | > 100 µM (inactive) | > 100 µM (inactive) | > 100 µM (inactive) | > 100 µM (inactive)
4 | COC(=O)CC1C2(C)C3=C(C)C(c4ccoc4)CC3OC2C2OC(=O)C3(C)C=CC(=O)C1(C)C23 (centres undefined) | 2.83 µM (inactive) | 0.841 µM (active) | 1.3 µM (inactive) | 1.41 µM (inactive) | 0.953 µM (active) | 0.986 µM (active) | 0.656 µM (active) | 1.02 µM (active) | 1.15 µM (inactive) | 2.25 µM (inactive) | 2.3 µM (inactive) | 1.02 µM (active) | 0.34 µM (active) | 2.07 µM (inactive) | 1.64 µM (inactive) | 1.6 µM (inactive) | 2.25 µM (inactive) | 1.48 µM (inactive) | – | 0.578 µM (active)
5 | CC1=CC(c2ccccc2)OP1(=O)c1ccccc1 (centres undefined) | > 100 µM (inactive) | > 100 µM (inactive) | > 100 µM (inactive) | > 100 µM (inactive) | > 100 µM (inactive) | > 100 µM (inactive) | > 100 µM (inactive) | > 100 µM (inactive) | > 100 µM (inactive) | > 100 µM (inactive) | > 100 µM (inactive) | > 100 µM (inactive) | – | > 100 µM (inactive) | > 100 µM (inactive) | > 100 µM (inactive) | > 100 µM (inactive) | > 100 µM (inactive) | > 100 µM (inactive) | > 100 µM (inactive)
6 | COc1cc2c3c(c1OC)C(=O)C(=O)C1=C3N(CCC1)CC2 | 34.8 µM (inactive) | 32.4 µM (inactive) | 10.4 µM (inactive) | 36.7 µM (inactive) | 28.7 µM (inactive) | 26.7 µM (inactive) | 22 µM (inactive) | – | 12.2 µM (inactive) | 24.2 µM (inactive) | 52.2 µM (inactive) | 21.5 µM (inactive) | – | 13.2 µM (inactive) | 48.9 µM (inactive) | 33 µM (inactive) | 63.4 µM (inactive) | 15.5 µM (inactive) | 18.5 µM (inactive) | 14.9 µM (inactive)
7 | O=C1/C(=C/c2cccc([N+](=O)[O-])c2)Sc2scc(-c3ccc([N+](=O)[O-])cc3)[n+]21 | 29.6 µM (inactive) | 20.6 µM (inactive) | 36.7 µM (inactive) | 16.4 µM (inactive) | 18.6 µM (inactive) | 18.5 µM (inactive) | 16.9 µM (inactive) | – | 11.4 µM (inactive) | 30.4 µM (inactive) | 24.5 µM (inactive) | 31.6 µM (inactive) | – | – | 20.2 µM (inactive) | 27.7 µM (inactive) | 18.9 µM (inactive) | 27.2 µM (inactive) | – | 24.7 µM (inactive)
8 | O=C1c2nn(-c3ccccc3)nc2C(c2ccccc2)N1c1ccccc1 (centres undefined) | > 100 µM (inactive) | > 100 µM (inactive) | > 100 µM (inactive) | > 100 µM (inactive) | 77.6 µM (inactive) | > 100 µM (inactive) | – | > 100 µM (inactive) | > 100 µM (inactive) | > 100 µM (inactive) | > 100 µM (inactive) | 52.8 µM (inactive) | > 100 µM (inactive) | > 100 µM (inactive) | > 100 µM (inactive) | > 100 µM (inactive) | > 100 µM (inactive) | 95.3 µM (inactive) | > 100 µM (inactive) | –
9 | CCOc1ccccc1NC(=O)C(C#N)C1=C(Cl)C(=O)c2ccccc2C1=O (centres undefined) | 1.95 µM (inactive) | 2.76 µM (inactive) | 1.98 µM (inactive) | 1.75 µM (inactive) | 2.13 µM (inactive) | 0.74 µM (active) | – | 1.57 µM (inactive) | 1.79 µM (inactive) | 1.94 µM (inactive) | 2.14 µM (inactive) | 0.792 µM (active) | 1.58 µM (inactive) | 2.11 µM (inactive) | 1.55 µM (inactive) | 1.5 µM (inactive) | 2.13 µM (inactive) | 1.71 µM (inactive) | 1.33 µM (inactive) | –
10 | CN1C(OCc2ccccc2)c2c(ccc3c2OCO3)C2C=Cc3cc4c(cc3C21)OCO4 (centres undefined) | 1.49 µM (inactive) | 1.03 µM (active) | 1.02 µM (active) | 1.63 µM (inactive) | 0.792 µM (active) | 0.182 µM (active) | – | 1.26 µM (inactive) | 1.48 µM (inactive) | 1.69 µM (inactive) | 1.52 µM (inactive) | 0.319 µM (active) | 0.221 µM (active) | 0.475 µM (active) | 1.55 µM (inactive) | 1.31 µM (inactive) | 1.69 µM (inactive) | 1.51 µM (inactive) | 0.237 µM (active) | –
11 | CC(C)(C)[Si](C)(C)OCC1OC(n2ccc(=O)[nH]c2=O)C(O[Si](C)(C)C(C)(C)C)[C@@]12O[C@H]2C(N)=O (some centres undefined) | 5.75 µM (inactive) | 11.6 µM (inactive) | 7.64 µM (inactive) | 11.9 µM (inactive) | 2.86 µM (inactive) | 3.4 µM (inactive) | 4.92 µM (inactive) | – | 5.28 µM (inactive) | 18.5 µM (inactive) | 11.8 µM (inactive) | 5.11 µM (inactive) | 6.17 µM (inactive) | 9.2 µM (inactive) | 16.3 µM (inactive) | 4.06 µM (inactive) | 10.9 µM (inactive) | 4.28 µM (inactive) | – | 3.97 µM (inactive)
12 | O=C(O)Cc1ccc(Nc2nc3cc(C(F)(F)F)ccc3nc2C(=O)O)cc1 | > 100 µM (inactive) | > 100 µM (inactive) | > 100 µM (inactive) | – | > 100 µM (inactive) | > 100 µM (inactive) | > 100 µM (inactive) | > 100 µM (inactive) | > 100 µM (inactive) | > 100 µM (inactive) | > 100 µM (inactive) | > 100 µM (inactive) | – | > 100 µM (inactive) | > 100 µM (inactive) | > 100 µM (inactive) | > 100 µM (inactive) | > 100 µM (inactive) | < 0.01 µM (active) | > 100 µM (inactive)
13 | CCCCC(=O)OCC(=O)[C@]1(O)Cc2c(O)c3c(c(O)c2[C@@H](OC2CC(NC(=O)C(F)(F)F)C(O)C(C)O2)C1)C(=O)c1c(OC)cccc1C3=O (some centres undefined) | 0.194 µM (active) | 0.203 µM (active) | 1.11 µM (active) | 1.3 µM (inactive) | 0.794 µM (active) | 0.163 µM (active) | 2.07 µM (inactive) | 0.711 µM (active) | 0.0214 µM (active) | 2.08 µM (inactive) | 1.52 µM (inactive) | 0.519 µM (active) | 0.181 µM (active) | 0.403 µM (active) | 0.962 µM (active) | 0.327 µM (active) | 0.348 µM (active) | 0.221 µM (active) | 0.0304 µM (active) | –
14 | COc1ccc2c(c1O)-c1c(OC)c(OC)cc3c1[C@H](C2)[N+](C)(C)CC3 | > 100 µM (inactive) | > 100 µM (inactive) | > 100 µM (inactive) | > 100 µM (inactive) | > 100 µM (inactive) | > 100 µM (inactive) | > 100 µM (inactive) | > 100 µM (inactive) | > 100 µM (inactive) | > 100 µM (inactive) | > 100 µM (inactive) | > 100 µM (inactive) | > 100 µM (inactive) | > 100 µM (inactive) | > 100 µM (inactive) | > 100 µM (inactive) | > 100 µM (inactive) | > 100 µM (inactive) | – | > 100 µM (inactive)
15 | COc1cccc2c1C(=O)c1c(O)c3c(c(O)c1C2=O)C[C@@](O)(C(=O)CO)C[C@@H]3OC1CC(N)C(O)C(C)O1 (some centres undefined) | 74.1 nM (active) and 80.2 nM (active) | 269 nM (active) and 176 nM (active) | – | 314 nM (active) and 191 nM (active) | – | 52.1 nM (active) and 44.4 nM (active) | – | – | – | 1.16 µM (inactive) and 671 nM (active) | 658 nM (active) and 733 nM (active) | 200 nM (active) and 136 nM (active) | 55.3 nM (active) and 43.9 nM (active) | – | 252 nM (active) and 203 nM (active) | 114 nM (active) and 72.8 nM (active) | 54.3 nM (active) and 92 nM (active) | 44.9 nM (active) and 85.9 nM (active) | 10 nM (active) and 12.2 nM (active) | 0.0169 µM (active)
